Data taken from EP4792817A1, “COMPOUND AND METHOD FOR TREATING AND/OR […] CANCER OR PR[…] THEREOF” (EnKang Pharmaceuticals (Guangzhou), Ltd., priority 2023, dated 2025).
Converted amounts (≈) assume the structure as drawn. Where two headings read alike, the source gives them in different places.

Columns and labels:
COLO-16 cells [1] = assay: cells; conditions: for IC50: test concentrations in ng/mL
Protocol: (§1) The experimental procedures were as follows: The cells were subcultured in a complete medium containing 10% FBS in an incubator at 37 °C with 5% CO2 and saturated humidity. The cell density was adjusted to (3-5) × 10^4 cells/mL using a complete medium containing 10% FBS. The cell suspension was added to the wells of a 96-well culture plate at 100 µL/well, and the plate was incubated in an incubator at 37 °C with 5% CO2 and saturated humidity overnight (for about 16-24 hrs). Various dose groups of the test substance and a solvent control group were set. On the next day, the original culture medium was discarded. Subsequently, 20% FBS-containing complete medium was added at 100 µL/well, and the test substance or solvent in FBS-free medium was then added at 100 µL/well, resulting in a final FBS concentration of 10%. Meanwhile, a negative control group was set: each well received 100 µL of 20% FBS-containing complete medium + 100 µL of incomplete medium containing cells, resulting in a final FBS concentration of 10%. A zero adjustment group (background) was also set: 200 µL of the culture medium alone (100 µL of 20% FBS-containing complete medium + 100 µL of incomplete medium), without drugs and cells. For each concentration group, four replicate wells were set.
After incubation for 48 hrs under the experimental conditions, the supernatant was discarded, and 110 µL of CCK-8 working solution (100 µL of 10% FBS-containing complete medium and 10 µL of CCK-8 solution) were added to each well. The cells were further incubated for 4 hrs, and the optical density value at a wavelength of 450 nm (A450) was then measured for each well using a microplate reader. The average value for the wells of each treatment group (T) was compared with the average value for the negative control wells (C). The percent inhibition rate of each concentration group was calculated using the following formula: [Inhibition rate = (1 - T/C) × 100%], and the half-maximal inhibitory concentration (IC50) was calculated.

[2] = test system: TE.354.T cells (human cutaneous basal cell carcinoma); assay: cells; conditions: 72 h, read-out: half-maximal inhibitory concentration
Protocol: The percent inhibition rate of each concentration group was calculated using the following formula: [Inhibition rate = (1 - T/C) × 100%], and the half-maximal inhibitory concentration (IC50) was calculated.

A431 cells = conditions: 48 hrs
Protocol: as §1, with “Meanwhile, a negative control group was set: each well received 100 µL of 20% FBS-containing complete medium + 100 µL of incomplete medium containing cells, resulting in a final FBS concentration of 10%. A zero adjustment group (background) was also set: 200 µL of the culture medium alone (100 µL of 20% FBS-containing complete medium + 100 µL of incomplete medium), without drugs and cells. For each concentration group, four replicate wells were set.” left out
(§2) After incubation for 48 hrs under the experimental conditions, the supernatant was discarded, and 110 µL of CCK-8 working solution (100 µL of 10% FBS-containing complete medium and 10 µL of CCK-8 solution) were added to each well. The cells were further incubated for 4 hrs, and the optical density value at a wavelength of 450 nm (A450) was then measured for each well using a microplate reader. […]

SCL-1 cells = conditions: 48 hrs
Protocol: as §1, with “Meanwhile, a negative control group was set: each well received 100 µL of 20% FBS-containing complete medium + 100 µL of incomplete medium containing cells, resulting in a final FBS concentration of 10%. A zero adjustment group (background) was also set: 200 µL of the culture medium alone (100 µL of 20% FBS-containing complete medium + 100 µL of incomplete medium), without drugs and cells. For each concentration group, four replicate wells were set.” left out
as §2

[3] = not given; remark: listed apart in the source
[4] = 20 °C
COLO-16 cells [5] = conditions: drug substance 0.8 mg/kg; intragastric administration, once every other day; after 21 days of treatment
[6] = for plasma drug concentrations above the LLOQ: topical gel 0.008-0.06 mg/cm^2, LLOQ 0.02 ng/mL
[7] = test system: human liver cancer HepG2 cells; conditions: Patent No. CN 104736157 A; cited from earlier work

Question: For `CO[C@H]1[C@H](O)[C@H](O[C@H]2CC[C@@]3(C)[C@H](CC[C@@H]4[C@@H]3CC[C@]3(C)[C@@H](C5=CC(=O)OC5)CC[C@]43O)C2)O[C@@H](C)[C@@H]1O` [17β-neriifolin], which Inhibition rate% (COLO-16 cells [1]; 2.5 ng/mL, 48 hrs) is on record?
Answer: 6.9%

Question: And the Inhibition rate% (COLO-16 cells [1]; 25 ng/mL, 48 hrs)?
Answer: 72.7%

Question: What about the Inhibition rate% (COLO-16 cells [1]; 50 ng/mL, 48 hrs) of the same compound?
Answer: 77.9%

Question: And the Inhibition rate% (COLO-16 cells [1]; 100 ng/mL, 48 hrs)?
Answer: 89.5%

Question: What about the IC50 (COLO-16 cells [1]; 48 hrs) of the same compound?
Answer: 12.28

Question: What about the inhibition at 0.0025 µg/mL (COLO-16 cells [1]; Homo sapiens, 48 h, read-out: Inhibition rate%, 2.5 ng/mL) of the same compound?
Answer: 9%

Question: What about the inhibition at 0.025 µg/mL (COLO-16 cells [1]; Homo sapiens, 48 h, read-out: Inhibition rate%, 25 ng/mL) of the same compound?
Answer: 57.3%

Question: And the inhibition at 0.05 µg/mL (COLO-16 cells [1]; Homo sapiens, 48 h, read-out: Inhibition rate%, 50 ng/mL)?
Answer: 74.5%

Question: What about the inhibition at 0.1 µg/mL (COLO-16 cells [1]; Homo sapiens, 48 h, read-out: Inhibition rate%, 100 ng/mL) of the same compound?
Answer: 85.3%

Question: What about the IC50 (COLO-16 cells [1]; Homo sapiens, 48 h) of the same compound?
Answer: 0.0186 µg/mL (≈ 0.0348 µM)

Question: What about the IC50 [2] of the same compound?
Answer: ~0.01 µg/mL (≈ 0.0187 µM)

Question: What about the growth inhibitory effects (A431 cells) of the same compound?
Answer: strong growth inhibitory effects

Question: What about the growth inhibitory effects (SCL-1 cells) of the same compound?
Answer: strong growth inhibitory effects

Question: What about the solubility of the same compound?
Answer: ~70 µg/mL (≈ 131 µM)

Question: What about the Saturation solubility ([3]; 10% ethanol) of the same compound?
Answer: 0.16 mg/mL

Question: And the Saturation solubility ([3]; 10% propylene glycol)?
Answer: 0.08 mg/mL

Question: And the Saturation solubility ([3]; 20% ethanol)?
Answer: 0.38 mg/mL

Question: And the Saturation solubility ([3]; 20% propylene glycol)?
Answer: 0.10 mg/mL

Question: And the Saturation solubility ([3]; 30% ethanol)?
Answer: 0.91 mg/mL

Question: What about the Saturation solubility ([3]; 30% propylene glycol) of the same compound?
Answer: 0.42 mg/mL

Question: And the Saturation solubility ([3]; 40% ethanol)?
Answer: 2.17 mg/mL

Question: What about the Saturation solubility ([3]; 40% propylene glycol) of the same compound?
Answer: 0.75 mg/mL

Question: And the Dissolution behavior ([4]; Ethanol concentration 20%, sample concentration 8 mg/g)?
Answer: Dissolved

Question: And the Dissolution behavior ([4]; Ethanol concentration 45%, sample concentration 20 mg/g)?
Answer: Dissolved

Question: What about the Dissolution behavior ([4]; Ethanol concentration 50%, sample concentration 24 mg/g) of the same compound?
Answer: Dissolved

Question: What about the Dissolution behavior ([4]; Ethanol concentration 66%, sample concentration 32 mg/g) of the same compound?
Answer: Dissolved

Question: And the Dissolution behavior ([4]; Ethanol concentration 75%, sample concentration 40 mg/g)?
Answer: Dissolved

Question: And the Dissolution behavior ([4]; Ethanol concentration 100%, sample concentration 50 mg/g)?
Answer: Dissolved

Question: What about the tumor inhibition rate (COLO-16 cells [5]) of the same compound?
Answer: greater than 80%

Question: What about the “plasma drug concentrations above the LLOQ” value ([6]; four Australian subjects) of the same compound?
Answer: 0.021 to 0.101 ng/mL

Question: And the “plasma drug concentrations above the LLOQ” value ([6]; seven Chinese subjects)?
Answer: 0.022 to 0.106 ng/mL

Question: And the “dose dependence of systemic exposure” value ([6]; topical gel, 0.008-0.06 mg/cm^2 dose range)?
Answer: No dose-dependent increase

Question: And the “cell cycle arrest and apoptosis” value [7]?
Answer: induce cell cycle arrest and apoptosis
